# Where two headings read alike, the source gives them in different places.
# Key:
# [1] = Stability of the ginsenosides in rat plasma (QC samples); type: in vitro ADME; conditions: for Re (%) Postpreparation / Recovery (%) Postpreparation: autosampler 4°C for 12 h; for Re (%) Short term / Recovery (%) Short term / Re (%) Freeze-thaw cycles / Recovery (%) Freeze-thaw cycles: rat plasma; for Re (%) Short term / Recovery (%) Short term: 1 month at −80°C; for Re (%) Freeze-thaw cycles / Recovery (%) Freeze-thaw cycles: three freeze-thaw cycles at −80°C
# Method: The standard stock solution was prepared in methanol with four ginsenosides at the final concentration of 1.14 mg/mL for Rb1, 0.10 mg/mL for Rb2, 0.78 mg/mL for Rd, and 1.58 mg/mL for Re. The working standard solution at required concentration was obtained by continuously diluting the stock solution. The IS stock solution was also prepared with methanol at a final concentration of 720 ng/mL. Calibration samples were prepared by mixing solutions of standard mixture, internal standard, and methanol with rat blank plasma at the final concentrations of 3.6, 7.2, 35.6, 71.2, 142.4, 284.8, 569.5, and 1, 139.0 ng/mL for Rb1, 1.6, 3.2, 6.3, 31.3, 62.5, 125.0, 250.0, and 500.0 ng/mL for Rb2, 1.2, 2.4, 4.9, 24.4, 48.8, 97.6, 195.1, and 390.2 ng/mL for Rd, and 2.5, 4.9, 9.9, 49.3, 98.6, 197.1, 394.3, and 788.5 ng/mL for Re. QC samples were also prepared with the same method at low, middle, and high concentrations (7.2, 142.4, and 911.4 ng/mL for Rb1, 3.2, 62.5, and 400.0 ng/mL for Rb2, 2.4, 48.8, and 312.2 ng/mL for Rd, 5.0, 98.6, and 630.8 ng/mL for Re). All solutions were stored at 4°C. The stability of the four analytes was determined by exposing plasma samples to QC at three concentration levels in six replicates. Samples were stored at −80°C for 1 month to assess the short-term storage stability. Freeze-thaw stability was performed after three freeze-thaw cycles at −80°C during three consecutive days. To evaluate the postpreparative stability, extracted QC samples were kept in the autosampler (4°C) for 12 h before analysis. The stability assessment of these samples was calibrated with freshly prepared standard as previously described.
# [2] = Pharmacokinetics of four ginsenosides in rat plasma after oral administration of PQ-AG and PQ extracts (UPLC-MS/MS); type: in vivo; conditions: male SD rats, n = 6, mean ± SD; for AUC: male, SD, po
# Method: Chromatographic analysis was performed on a Waters Acquity UPLC system (Waters Corp., Milford, MA, USA). An ACQUITY UPLC BEH C18 (100 × 2.1 mm, 1.7 μm) column was used for all analytes. The column temperature was at 35°C. The mobile phase was composed of formic acid aqueous solution (A, 0.1%) and acetonitrile (B) at a gradient elution of 25% B at 0–0.5 min, 25%–50% B at 0.5–2.0 min, 50–60% B at 2.0–5.0 min, 60–25% B at 5.0–5.5 min, and 25% B at 5.5–7.0 min, with a flow rate of 0.2 mL/min.
# MS detection was performed using the Xevo Triple Quadruple MS (Waters Corp.) equipped with an ESI source in both positive and negative ionization modes. The experimental parameters were set as follows: CV 2.80 kV; desolvation temperature 350°C; source temperature […]; cone gas flow 50 L/h; and desolvation gas flow 650 L/h. The detection was carried out using the MRM scan mode. All experimental data were collected in centroid mode using Masslynx 4.1 software (Waters Corp., Milford, USA), and postacquisition quantitative analysis was conducted using Target Lynx program (Waters Corp., Milford, USA).
# Plasma specimens (200 μL) were mixed with IS solution (20 μL, 720 ng/mL) in an Eppendorf tube and centrifuged at 4, 000 rpm for 15 min at 4°C. Then, the supernatant was removed from plasma sample. Hydrochloric acid (4 μL) was added into 200 μL plasma sample, and then, the mixture was vortexed for 1 min. Waters OASIS HLB SPE C18 columns (Waters, USA) were used to remove the proteins in plasma samples, and it was preactivated by 3 mL methanol and 3 mL water. Then, 2 mL of 100% methanol was used to wash the column, and the eluate was collected and dried under nitrogen gas (45°C). Subsequently, 100 μL of 100% methanol was used to redissolve the residues, followed by centrifugation at 13, 000 rpm for 15 min at 4°C. Before UPLC-MS/MS analysis, the sample was finally filtered through a 0.22 μm membrane filter.
# DAS 3.2 software (Mathematical Pharmacology Professional Committee of China, Shanghai, China, 2011) was applied for the analysis of concentration-time data to investigate the pharmacokinetic parameters of four ginsenosides in various groups. Data were presented as the mean ± SD (standard deviation) with triplicate measurements. A significance level was set at P < 0.05.
# Male SD rats were randomly and evenly divided into two groups (n = 6 per group) in pharmacokinetic studies. To evaluate the compatible effect of AG upon PQ treatment, rats were given PQ at a dosage of 0.54 g/kg (equivalent to the amount of raw drug 0.54 g) in the PQ group. PQ-AG was combined with an equal proportion to prepare the mixed extract. The oral dosage in rats was 1.08 g/kg (equivalent to the amount of the raw drug including 0.54 g AG and 0.54 g PQ) in the PQ-AG group. Blood samples were collected at specific time points of 0, 0.25, 0.5, 1.0, 1.5, 2.0, 4.0, 6.0, 8.0, 12.0, 16.0, 24.0, and 48.0 h. All the plasma samples were obtained by centrifuging the blood samples at 3, 500 rpm for 10 min, then labeled and frozen at −80°C prior to analysis.
# [3] = extracted high QC (911.4 Rb1, 400.0 Rb2, 312.2 Rd, 630.8 Re ng/mL)
# [4] = extracted low QC (7.2 Rb1, 3.2 Rb2, 2.4 Rd, 5.0 Re ng/mL)
# [5] = extracted middle QC (142.4 Rb1, 62.5 Rb2, 48.8 Rd, 98.6 Re ng/mL)
# [6] = high QC (911.4 Rb1, 400.0 Rb2, 312.2 Rd, 630.8 Re ng/mL)
# [7] = low QC (7.2 Rb1, 3.2 Rb2, 2.4 Rd, 5.0 Re ng/mL)
# [8] = middle QC (142.4 Rb1, 62.5 Rb2, 48.8 Rd, 98.6 Re ng/mL)
# [9] = PQ group: oral PQ extract 0.54 g/kg
# [10] = PQ-AG group: oral PQ-AG extract 1.08 g/kg
# [11] = 0.54 g/kg, PQ group: oral PQ extract 0.54 g/kg, read-out: AUC0⟶t
# [12] = 0.54 g/kg, PQ group: oral PQ extract 0.54 g/kg, read-out: AUC0⟶∞
# [13] = 1.08 g/kg, PQ-AG group: oral PQ-AG extract 1.08 g/kg, read-out: AUC0⟶t
# [14] = 1.08 g/kg, PQ-AG group: oral PQ-AG extract 1.08 g/kg, read-out: AUC0⟶∞
SMILES,"Re (%) Postpreparation [1, 3] [%]","Recovery (%) Postpreparation [1, 3] [%]","Re (%) Postpreparation [1, 4] [%]","Recovery (%) Postpreparation [1, 4] [%]","Re (%) Postpreparation [1, 5] [%]","Recovery (%) Postpreparation [1, 5] [%]","Re (%) Short term [1, 6] [%]","Recovery (%) Short term [1, 6] [%]","Re (%) Freeze-thaw cycles [1, 6] [%]","Recovery (%) Freeze-thaw cycles [1, 6] [%]","Re (%) Short term [1, 7] [%]","Recovery (%) Short term [1, 7] [%]","Re (%) Freeze-thaw cycles [1, 7] [%]","Recovery (%) Freeze-thaw cycles [1, 7] [%]","Re (%) Short term [1, 8] [%]","Recovery (%) Short term [1, 8] [%]","Re (%) Freeze-thaw cycles [1, 8] [%]","Recovery (%) Freeze-thaw cycles [1, 8] [%]","Cmax [2, 9] [ng/mL]","Tmax [2, 9] [h]",other results
CC(C)=CCC[C@](C)(O[C@@H]1O[C@H](CO)[C@@H](O)[C@H](O)[C@H]1O)[C@H]1CC[C@]2(C)[C@@H]1[C@H](O)C[C@@H]1[C@@]3(C)CC[C@H](O)C(C)(C)[C@@H]3[C@@H](O[C@@H]3O[C@H](CO)[C@@H](O)[C@H](O)[C@H]3O[C@@H]3O[C@@H](C)[C@H](O)[C@@H](O)[C@H]3O)C[C@]12C [Re],9.76,102.50,8.54,104.63,8.92,97.21,8.40,101.73,−9.85,97.39,−10.71,97.30,7.33,104.07,12.11,99.25,7.53,94.12,355 ± 26.6,1.08 ± 0.2,"half-life [2, 9]: 8.14 ± 1.2 h; Cmax [2, 10]: 460 ± 30.2 ng/mL; Tmax [2, 10]: 0.58 ± 0.2 h; half-life [2, 10]: 9.81 ± 2.15 h; AUC [2, 11]: 2330 ± 214 ng·h/mL; AUC [2, 12]: 2380 ± 224 ng·h/mL; AUC [2, 13]: 3430 ± 294 ng·h/mL; AUC [2, 14]: 3580 ± 396 ng·h/mL"
CC(C)=CCC[C@](C)(O[C@@H]1O[C@H](CO[C@@H]2OC[C@H](O)[C@H](O)[C@H]2O)[C@@H](O)[C@H](O)[C@H]1O)[C@H]1CC[C@]2(C)[C@@H]1[C@H](O)C[C@@H]1[C@@]3(C)CC[C@H](O[C@@H]4O[C@H](CO)[C@@H](O)[C@H](O)[C@H]4O[C@@H]4O[C@H](CO)[C@@H](O)[C@H](O)[C@H]4O)C(C)(C)[C@@H]3CC[C@]12C [Rb2],7.90,99.63,−9.72,93.37,2.39,99.94,7.11,98.74,9.36,103.82,−9.70,93.67,−9.69,94.21,−2.12,95.33,6.77,100.41,160 ± 18.8,7.67 ± 0.82,"half-life [2, 9]: 13.3 ± 1.58 h; Cmax [2, 10]: 264 ± 24.5 ng/mL; Tmax [2, 10]: 7.67 ± 0.82 h; half-life [2, 10]: 15.6 ± 5.21 h; AUC [2, 11]: 1210 ± 99.2 ng·h/mL; AUC [2, 12]: 1230 ± 99.6 ng·h/mL; AUC [2, 13]: 2460 ± 243 ng·h/mL; AUC [2, 14]: 2520 ± 289 ng·h/mL"
CC(C)=CCC[C@](C)(O[C@@H]1O[C@H](CO)[C@@H](O)[C@H](O)[C@H]1O)[C@H]1CC[C@]2(C)[C@@H]1[C@H](O)C[C@@H]1[C@@]3(C)CC[C@H](O[C@@H]4O[C@H](CO)[C@@H](O)[C@H](O)[C@H]4O[C@@H]4O[C@H](CO)[C@@H](O)[C@H](O)[C@H]4O)C(C)(C)[C@@H]3CC[C@]12C [Rd],−7.02,94.81,4.43,100.10,9.98,101.71,7.35,101.27,8.12,102.00,8.64,102.66,−11.93,97.24,10.24,103.61,8.87,100.20,201 ± 7.3,7.67 ± 0.82,"half-life [2, 9]: 13.1 ± 2.61 h; Cmax [2, 10]: 283 ± 11.1 ng/mL; Tmax [2, 10]: 6.33 ± 0.82 h; half-life [2, 10]: 14.2 ± 1.98 h; AUC [2, 11]: 3010 ± 230 ng·h/mL; AUC [2, 12]: 3320 ± 317 ng·h/mL; AUC [2, 13]: 3870 ± 356 ng·h/mL; AUC [2, 14]: 3960 ± 383 ng·h/mL"
